Data reported in patent US12077503B2, “Substituted cyclic amides and their use as herbicides” (FMC CORPORATION, priority 2015, dated 2024).

What was measured:
Type in all cases: in vivo
[1] = system: velvetleaf (Abutilon theophrasti); assay: Test G Pre-Emergence Protocol; settings: Abutilon theophrasti, pre-emergence, 312 h, evaluated after 13 days
In short: (§1)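 Seeds were sown in standard soil and kept one day in a glasshouse (24/16° C day/night, 14 h light, 65% humidity), then sprayed with compound in acetone/water (50:50) containing 0.5% Tween 20 at 15.625, 62.5 or 250 g/ha. Damage was scored after 13 days (0 = none, 100 = total).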

[2] = system: giant foxtail (Setaria faberi); assay: Test G Pre-Emergence Protocol; settings: Setaria faberi, pre-emergence, 312 h, evaluated after 13 days
In short: as §1

[3] = system: barnyardgrass (Echinochloa crus-galli); assay: Test G Pre-Emergence Protocol; settings: Echinochloa crus-galli, pre-emergence, 312 h, evaluated after 13 days
In short: as §1

[4] = system: redroot pigweed (Amaranthus retroflexus); assay: Test G Pre-Emergence Protocol; settings: Amaranthus retroflexus, pre-emergence, 312 h, evaluated after 13 days
In short: as §1

corn (Zea mays) [5] = assay: Test G Pre-Emergence Protocol; settings: Zea mays, pre-emergence, 312 h, evaluated after 13 days
In short: as §1

[6] = system: ivy-leaved morning glory (Ipomoea hederacea); assay: Test G Pre-Emergence Protocol; settings: Ipomoea, pre-emergence, 312 h, evaluated after 13 days
In short: as §1

[7] = system: velvetleaf (Abutilon theophrasti); assay: Test G Post-Emergence Protocol; settings: Abutilon theophrasti, post-emergence, 312 h, read-out: Velvetleaf damage rating
In short: (§2)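 Seedlings grown 8 days in soil in a glasshouse (24/16 °C day/night, 14 h light, 65% humidity) were sprayed post-emergence with compound in acetone/water 50:50 plus 0.5% Tween 20 at 15.625, 62.5 or 250 g/ha. Damage was scored after 13 days on a 0–100 scale (100 = total damage).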

[8] = system: giant foxtail (Setaria faberi); assay: Test G Post-Emergence Protocol; settings: Setaria faberi, post-emergence, 312 h, read-out: Foxtail, Giant damage rating
In short: as §2

[9] = system: barnyardgrass (Echinochloa crus-galli); assay: Test G Post-Emergence Protocol; settings: Echinochloa crus-galli, post-emergence, 312 h, read-out: Barnyardgrass damage rating
In short: as §2

[10] = system: redroot pigweed (Amaranthus retroflexus); assay: Test G Post-Emergence Protocol; settings: Amaranthus retroflexus, post-emergence, 312 h, read-out: Pigweed, Redroot damage rating
In short: as §2

corn (Zea mays) [11] = assay: Test G Post-Emergence Protocol; settings: Zea mays, post-emergence, 312 h, read-out: Corn damage rating
In short: as §2

[12] = system: ivy-leaved morning glory (Ipomoea hederacea); assay: Test G Post-Emergence Protocol; settings: Ipomoea, post-emergence, 312 h, read-out: Morningglory, Ivy-leaved damage rating
In short: as §2

[13] = 15.625 g ai/ha, evaluated after 13 days (100=total damage to plant; 0=no damage to plant)
[14] = 62.5 g ai/ha, evaluated after 13 days, 100=total damage to plant, 0=no damage to plant
[15] = 250 g ai/ha, evaluated after 13 days, 100=total damage to plant, 0=no damage to plant

In the case of `CC(O)c1ccccc1NC(=O)[C@H]1C(=O)N(C)C[C@@H]1c1cccc(C(F)(F)F)c1` (mixture of isomers) [Compound 1783], the pest or weed control at 15.625 g/ha ([1]; 15.625 g ai/ha, read-out: Velvetleaf damage rating (100=total damage to plant; 0=no damage to plant)) is reported as 0%, the pest or weed control at 62.5 g/ha ([1]; 62.5 g ai/ha, 100=total damage to plant, 0=no damage to plant, read-out: Velvetleaf damage rating) is reported as 10% and the pest or weed control at 250 g/ha ([1]; 250 g ai/ha, read-out: Velvetleaf damage rating (100=total damage to plant; 0=no damage to plant)) is reported as 70%. For the same molecule, the pest or weed control at 15.625 g/ha ([2]; 15.625 g ai/ha, read-out: Foxtail, Giant damage rating (100=total damage to plant; 0=no damage to plant)) was 80%, the pest or weed control at 62.5 g/ha ([2]; 62.5 g ai/ha, 100=total damage to plant, 0=no damage to plant, read-out: Foxtail, Giant damage rating) was 90% and the pest or weed control at 250 g/ha ([2]; 250 g ai/ha, read-out: Foxtail, Giant damage rating (100=total damage to plant; 0=no damage to plant)) was 90%. The pest or weed control at 15.625 g/ha ([3]; 15.625 g ai/ha, read-out: Barnyardgrass damage rating (100=total damage to plant; 0=no damage to plant)) was 50%, the pest or weed control at 62.5 g/ha ([3]; 62.5 g ai/ha, 100=total damage to plant, 0=no damage to plant, read-out: Barnyardgrass damage rating) was 90% and the pest or weed control at 250 g/ha ([3]; 250 g ai/ha, read-out: Barnyardgrass damage rating (100=total damage to plant; 0=no damage to plant)) was 90%. It also gave a pest or weed control at 15.625 g/ha ([4]; 15.625 g ai/ha, read-out: Pigweed, Redroot damage rating (100=total damage to plant; 0=no damage to plant)) of 0%, a pest or weed control at 62.5 g/ha ([4]; 62.5 g ai/ha, 100=total damage to plant, 0=no damage to plant, read-out: Pigweed, Redroot damage rating) of 0% and a pest or weed control at 250 g/ha ([4]; 250 g ai/ha, read-out: Pigweed, Redroot damage rating (100=total damage to plant; 0=no damage to plant)) of 40%. It also gave a plant injury at 15.625 g/ha (corn (Zea mays) [5]; 15.625 g ai/ha, read-out: Corn damage rating (100=total damage to plant; 0=no damage to plant)) of 50%, a plant injury at 62.5 g/ha (corn (Zea mays) [5]; 62.5 g ai/ha, 100=total damage to plant, 0=no damage to plant, read-out: Corn damage rating) of 80% and a plant injury at 250 g/ha (corn (Zea mays) [5]; 250 g ai/ha, read-out: Corn damage rating (100=total damage to plant; 0=no damage to plant)) of 90%. The pest or weed control at 15.625 g/ha ([6]; 15.625 g ai/ha, read-out: Morningglory, Ivy-leaved damage rating (100=total damage to plant; 0=no damage to plant)) was 10%, the pest or weed control at 62.5 g/ha ([6]; 62.5 g ai/ha, 100=total damage to plant, 0=no damage to plant, read-out: Morningglory, Ivy-leaved damage rating) was 10% and the pest or weed control at 250 g/ha ([6]; 250 g ai/ha, read-out: Morningglory, Ivy-leaved damage rating (100=total damage to plant; 0=no damage to plant)) was 40%. The pest or weed control at 15.625 g/ha [7, 13] was 0%, the pest or weed control at 62.5 g/ha [7, 14] was 20% and the pest or weed control at 250 g/ha [7, 15] was 50%. The pest or weed control at 15.625 g/ha [8, 13] was 80%, the pest or weed control at 62.5 g/ha [8, 14] was 80% and the pest or weed control at 250 g/ha [8, 15] was 80%. For the same molecule, the pest or weed control at 15.625 g/ha [9, 13] was 70%, the pest or weed control at 62.5 g/ha [9, 14] was 80% and the pest or weed control at 250 g/ha [9, 15] was 80%. For the same molecule, the pest or weed control at 15.625 g/ha [10, 13] was 0%, the pest or weed control at 62.5 g/ha [10, 14] was 0% and the pest or weed control at 250 g/ha [10, 15] was 20%. The plant injury at 15.625 g/ha (corn (Zea mays) [11]; [13]) was 70%, the plant injury at 62.5 g/ha (corn (Zea mays) [11]; [14]) was 80% and the plant injury at 250 g/ha (corn (Zea mays) [11]; [15]) was 80%. For the same molecule, the pest or weed control at 15.625 g/ha [12, 13] was 10%, the pest or weed control at 62.5 g/ha [12, 14] was 60% and the pest or weed control at 250 g/ha [12, 15] was 70%.
